Literature values as cited in article PMC11881343, “Safety of ilunocitinib tablets (Zenrelia™) after once daily oral administration in dogs” (BMC Veterinary Research, 2025).

Columns and labels:
[1] = system: human patients with rheumatoid arthritis; set-up: method as in PMID 31362993; details: human medicine; cited from earlier work
[2] = system: dogs; details: cited from earlier work
[3] = system: JAK3; set-up: method as in PMID 32413585; details: cited from earlier work
[4] = system: peripheral blood leukocytes; details: rheumatoid arthritis patients in phase III clinical trials; cited from earlier work

Row | Compound | effect on hemoglobin [1] | Weight gain in dogs ([2]; dogs) | Papillomas in dogs ([2]; resorbed spontaneously) | potency against JAK3 [3] | changes in lymphocytes subsets populations [4]
1 | CC[C@@H]1CN(C(=O)NCC(F)(F)F)C[C@@H]1c1cnc2cnc3[nH]ccc3n12 [upadacitinib] | limited impact on hemoglobin | – | – | – | –
2 | CNS(=O)(=O)C[C@H]1CC[C@H](N(C)c2ncnc3[nH]ccc23)CC1 [oclacitinib] | – | Weight gain has been reported | Papillomas were also observed | – | –
3 | CCS(=O)(=O)N1CC(CC#N)(n2cc(-c3ncnc4[nH]ccc34)cn2)C1 [baricitinib] | initial decrease in hemoglobin within the normal range followed by a slight increase | – | – | significantly lower potency against JAK3 | minimal and reversible changes
